Assay results as given in patent US8927560B2, “4-Aza-2, 3-didehydropodophyllotoxin compounds and process for the preparation thereof” (Council of Scientific & Industrial Research, priority 2010, dated 2015).

Columns and labels:
[1] = tested on: Zr-75-1; experiment: SRB in vitro cytotoxicity assay, Zr-75-1 breast cancer cells; assay type: cell-based; conditions: Homo sapiens, 48 h drug exposure, read-out: In vitro anticancer activity GI50, Breast Zr-75-1
From the text: (§1) Compounds 4a-4z and 4aa-4ae have been evaluated for their in vitro cytotoxicity in selected human cancer cell lines i.e., colon (Colo205), lung (Hop-62, A549), cervix (SiHa), prostate (PC3), oral (KB, DWD, Gurav), Ovarian (A-2780) and breast (MCF7, Zr-75-1) origin by employing the sulforhodamine B (SRB) assay method (Skehn, P.; Storeng, R.; Scudiero, A.; Monks, J.; MeMohan, D.; Vistica, D.; Jonathan, T. W.; Bokesch, H.; Kenney, S.; Boyd M. R. J. Natl. Cancer Inst. 1990, 82, 1107).
(§2) The synthesized compounds have been evaluated for their in vitro cytotoxicity in human cancer cell lines. A protocol of 48 h continuous drug exposure has been used and a sulforhodamine B (SRB) protein assay has been used to estimate cell viability or growth. The cell lines were grown in DMEM medium containing 10% fetal bovine serum and 2 mM L-glutamine and were inoculated into 96 well microtiter plates in […] at plating densities depending on the doubling time of individual cell lines. The microliter plates were incubated at 37_C, 5% CO2, 95% air, and 100% relative humidity for 24 h prior to addition of experimental drugs. Aliquots of […] of the drug dilutions were added to the appropriate microliter wells already containing […] of cells, suiting in the required final drug concentrations. For each compound four concentrations (0.1, 1, 10 and 100 uM) were evaluated and each was done in triplicate wells. Plates were incubated further for 48 h and assay was terminated by the addition of […] of cold trichloro acetic acid (TCA) (final concentration, 10% TCA) and incubated for 60 min at 4_C. The plates were washed five times with tap water and airdried. Sulforhodamine B (SRB) solution ([…]) at 0.4% (w/v) in 1% acetic acid was added to each of the cells, and plates were incubated for 20 min at room temperature. The residual dye was removed by washing five times with 1% acetic acid. The plates were airdried. Bound stain was subsequently eluted with 10 mM trizma base, and the absorbance was read on an ELISA plate reader at a wavelength of 540 nm with 690 nm reference wavelengths. Percent growth was calculated on a plate by plate basis for test wells relative to control wells. The above determinations were repeated three times. Percentage growth was expressed as the (ratio of average absorbance of the test well to the average absorbance of the control wells)*100. Growth inhibition of 50% (GI50) was calculated from [(Ti−Tz)/(C−Tz)]*100 ¼ 50, which is the drug concentration resulting in a 50% reduction in the net protein increase (as measured by SRB staining) in control cells during the drug incubation. Where, Tz ¼ Optical density at time zero, OD of control ¼ C, and OD of test growth in the presence of drug ¼ Ti.

[2] = tested on: MCF7; experiment: SRB in vitro cytotoxicity assay, MCF7 breast cancer cells; assay type: cell-based; conditions: Homo sapiens, 48 h drug exposure, read-out: In vitro anticancer activity GI50, Breast MCF7
From the text: as §1, §2

[3] = tested on: KB; experiment: SRB in vitro cytotoxicity assay, KB oral cancer cells; assay type: cell-based; conditions: Homo sapiens, 48 h drug exposure, read-out: In vitro anticancer activity GI50, Oral KB
From the text: as §1, §2

[4] = tested on: Gurav; experiment: SRB in vitro cytotoxicity assay, Gurav oral cancer cells; assay type: cell-based; conditions: Homo sapiens, 48 h drug exposure, read-out: In vitro anticancer activity GI50, Oral Gurav
From the text: as §1, §2

[5] = tested on: DWD; experiment: SRB in vitro cytotoxicity assay, DWD oral cancer cells; assay type: cell-based; conditions: Homo sapiens, 48 h drug exposure, read-out: In vitro anticancer activity GI50, Oral DWD
From the text: as §1, §2

[6] = tested on: Colo 205; experiment: SRB in vitro cytotoxicity assay, Colo 205 colon cancer cells; assay type: cell-based; conditions: Homo sapiens, 48 h drug exposure, read-out: In vitro anticancer activity GI50, Colon Colo 205
From the text: as §1, §2

[7] = tested on: A-549; experiment: SRB in vitro cytotoxicity assay, A-549 lung cancer cells; assay type: cell-based; conditions: Homo sapiens, A549, 48 h drug exposure, read-out: In vitro anticancer activity GI50, Lung A-549
From the text: as §1, §2

[8] = tested on: Hop62; experiment: SRB in vitro cytotoxicity assay, Hop62 lung cancer cells; assay type: cell-based; conditions: Homo sapiens, HOP-62, 48 h drug exposure, read-out: In vitro anticancer activity GI50, Lung Hop62
From the text: as §1, §2

[9] = tested on: PC3; experiment: SRB in vitro cytotoxicity assay, PC3 prostate cancer cells; assay type: cell-based; conditions: Homo sapiens, PC-3, 48 h drug exposure, read-out: In vitro anticancer activity GI50, Prostate PC3
From the text: as §1, §2

[10] = tested on: A-2780; experiment: SRB in vitro cytotoxicity assay, A-2780 ovarian cancer cells; assay type: cell-based; conditions: Homo sapiens, A2780, 48 h drug exposure, read-out: In vitro anticancer activity GI50, Ovarian A-2780
From the text: as §1, §2

[11] = tested on: SiHa; experiment: SRB in vitro cytotoxicity assay, SiHa cervix cancer cells; assay type: cell-based; conditions: Homo sapiens, 48 h drug exposure, read-out: In vitro anticancer activity GI50, Cervix SiHa
From the text: as §1, §2

Row | SMILES | GI50 [1] | GI50 [2] | GI50 [3] | GI50 [4] | GI50 [5] | GI50 [6] | GI50 [7] | GI50 [8] | GI50 [9] | GI50 [10] | melting point | GI50 [11]
1 | COc1ccc(-c2noc3c2C(c2ccc(OC)c(O)c2)C2=C(COC2=O)N3)cc1 (stereo not drawn) [Compound 4ab, 4-(3-hydroxy-4-methoxyphenyl)-3-(4-methoxyphenyl)-4,5,7,8-tetrahydrofuro[3′,4′:5,6]pyrido[3,2-d]isoxazol-5-one] | 140 nM | 190 nM | 170 nM | 140 nM | < 100 nM | 2700 nM | < 100 nM | 140 nM | 160 nM | 160 nM | 219 to 221 °C | 
2 | COc1cc(C2C3=C(COC3=O)Nc3ccc4cn[nH]c4c32)ccc1F (stereo not drawn) [Compound 4q, 10-(4-fluoro-3-methoxyphenyl)-6,7,9,10-tetrahydro-1H-furo[3,4-b]pyrazolo[3,4-f]quinolin-9-one] |  | 2700 nM |  | 2600 nM |  |  | 2300 nM |  |  |  | 307 to 309 °C | 
3 | COc1cc(C2C3=C(COC3=O)Nc3ccc4cc[nH]c4c32)ccc1O (stereo not drawn) [Compound 4f, 10-(4-hydroxy-3-methoxyphenyl)-6,7,9,10-tetrahydro-1H-furo[3,4-b]pyrrolo[2,3-f]quinolin-9-one] | 2000 nM | 2300 nM |  | 2600 nM | 2400 nM | 2500 nM |  |  |  |  | 301 to 303 °C | 
4 | COc1ccc(C2C3=C(COC3=O)Nc3ccc4cc[nH]c4c32)cc1O (stereo not drawn) [Compound 4g, 10-(3-hydroxy-4-methoxyphenyl)-6,7,9,10-tetrahydro-1H-furo[3,4-b]pyrrolo[2,3-f]quinolin-9-one] | 2800 nM | 2900 nM | 2200 nM | 2300 nM |  | 190 nM | 2300 nM | 2200 nM |  | 2700 nM | 297 to 299 °C | 
5 | COc1cc(C2C3=C(COC3=O)Nc3ccc4nc(C)sc4c32)ccc1O (stereo not drawn) [Compound 4v, 10-(4-hydroxy-3-methoxyphenyl)-2-methyl-6,7,9,10-tetrahydrofuro[3,4-b][1,3]thiazolo[5,4-f]quinolin-9-one] | 170 nM | 160 nM | 2000 nM | 180 nM | < 100 nM |  | < 100 nM | 170 nM | 160 nM | 120 nM | 293 to 295 °C | 180 nM
6 | COc1cc(C2C3=C(COC3=O)Nc3ccc4cn[nH]c4c32)ccc1O (stereo not drawn) [Compound 4o, 10-(4-hydroxy-3-methoxyphenyl)-6,7,9,10-tetrahydro-1H-furo[3,4-b]pyrazolo[3,4-f]quinolin-9-one] | 2100 nM | 2000 nM |  |  |  | 2000 nM |  | 2800 nM | 2300 nM |  | 238 to 240 °C | 
7 | COc1cc(C2C3=C(COC3=O)Nc3ccc4cc(C)[nH]c4c32)ccc1F (stereo not drawn) [Compound 4l, 10-(4-fluoro-3-methoxyphenyl)-2-methyl-6,7,9,10-tetrahydro-1H-furo[3,4-b]pyrrolo[2,3-f]quinolin-9-one] |  | 2600 nM |  | 2500 nM | 2100 nM |  |  | 2400 nM |  | 2400 nM | 198 to 199 °C | 
8 | COc1cc(C2C3=C(COC3=O)Nc3ccc4cc[nH]c4c32)ccc1F (stereo not drawn) [Compound 4h, 10-(4-fluoro-3-methoxyphenyl)-6,7,9,10-tetrahydro-1H-furo[3,4-b]pyrrolo[2,3-f]quinolin-9-one] | 2500 nM | 2100 nM | 170 nM | 2500 nM | 2600 nM |  | 2200 nM | 2600 nM |  | 2300 nM | 170 to 172 °C | 
9 | COc1cc(C2C3=C(COC3=O)Nc3ccc4cc[nH]c4c32)cc(OC)c1OC (stereo not drawn) [Compound 4e, 10-(3,4,5-trimethoxyphenyl)-6,7,9,10-tetrahydro-1H-furo[3,4-b]pyrrolo[2,3-f]quinolin-9-one] | 2800 nM |  | 2000 nM |  | 2800 nM | 2300 nM | 2400 nM |  |  | 2700 nM | 299 to 301 °C | 
10 | COc1nc2c(c(OC)n1)C(c1cc(OC)c(OC)c(OC)c1)C1=C(COC1=O)N2 (stereo not drawn) [Compound 4a, 2,4-dimethoxy-5-(3,4,5-trimethoxyphenyl)-5,6,8,9-tetrahydrofuro[3′,4′:5,6]pyrido[2,3-d]pyrimidin-6-one] | 2200 nM | 2400 nM | 170 nM | 2000 nM | 2400 nM | 160 nM | 2100 nM | 2500 nM | 2400 nM |  | 299 to 300 °C | 
11 | COc1ccc(C2C3=C(COC3=O)Nc3ccc4cc(C)[nH]c4c32)cc1O (stereo not drawn) [Compound 4k, 10-(3-hydroxy-4-methoxyphenyl)-2-methyl-6,7,9,10-tetrahydro-1H-furo[3,4-b]pyrrolo[2,3-f]quinolin-9-one] | 170 nM | 2000 nM | 2100 nM | 170 nM | 2000 nM | 2700 nM | < 100 nM | 160 nM | 170 nM | 190 nM | 293 to 294 °C | 
12 | COc1cc(C2C3=C(COC3=O)Nc3ccc4cc(C)[nH]c4c32)cc(OC)c1OC (stereo not drawn) [Compound 4j, 2-methyl-10-(3,4,5-trimethoxyphenyl)-6,7,9,10-tetrahydro-1H-furo[3,4-b]pyrrolo[2,3-f]quinolin-9-one] |  |  |  |  |  |  |  |  |  |  |  | 2600 nM
13 | COc1cc(C2C3=C(COC3=O)Nc3ccc4ncsc4c32)ccc1O (stereo not drawn) [Compound 4t, 10-(4-hydroxy-3-methoxyphenyl)-6,7,9,10-tetrahydrofuro[3,4-b][1,3]thiazolo[5,4-f]quinolin-9-one] | < 100 nM | 150 nM | 150 nM | 140 nM | < 100 nM | 2200 nM | < 100 nM | 120 nM | 160 nM | 150 nM | 296 to 297 °C | 
14 | COc1ccc(C2C3=C(COC3=O)Nc3ccc4cn[nH]c4c32)cc1[N+](=O)[O-] (stereo not drawn) [Compound 4r, 10-(4-methoxy-3-nitrophenyl)-6,7,9,10-tetrahydro-1H-furo[3,4-b]pyrazolo[3,4-f]quinolin-9-one] | 140 nM | 160 nM | 120 nM | 140 nM | < 100 nM | 2200 nM | < 100 nM | 130 nM | 160 nM | 130 nM | 217 to 218 °C | 
15 | COc1cc(C2C3=C(COC3=O)Nc3ccc4ncsc4c32)cc(OC)c1OC (stereo not drawn) [Compound 4s, 10-(3,4,5-trimethoxyphenyl)-6,7,9,10-tetrahydrofuro[3,4-b][1,3]thiazolo[5,4-f]quinolin-9-one] | 2100 nM |  | 2100 nM |  | 2500 nM | 2500 nM | 2400 nM |  |  | 2300 nM | 309 to 310 °C | 
